Tests used:
human FPR2 = molecular target: T1, human FPR2 (Homo sapiens, UniProt P25090); test: FPR2 cyclic adenosine monophosphate (cAMP) assay; format: cell-based; details: CHO cells overexpressing human FPR2; forskolin 5 μM; inhibition of cAMP production; HTRF; read-out: hFPR2 cAMP2 EC50
T1 sequence (P25090 1-351): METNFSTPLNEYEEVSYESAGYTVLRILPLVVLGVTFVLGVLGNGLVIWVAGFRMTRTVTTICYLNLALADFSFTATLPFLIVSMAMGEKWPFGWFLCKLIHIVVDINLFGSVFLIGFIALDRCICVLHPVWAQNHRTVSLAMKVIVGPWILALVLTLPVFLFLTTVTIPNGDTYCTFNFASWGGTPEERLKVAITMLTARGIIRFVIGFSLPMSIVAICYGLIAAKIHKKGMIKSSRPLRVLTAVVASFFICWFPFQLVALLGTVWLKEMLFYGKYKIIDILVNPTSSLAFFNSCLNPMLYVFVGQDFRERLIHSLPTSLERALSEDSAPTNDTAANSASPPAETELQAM
Summary of the method: (§1)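 CHO/hFPR1 4,000 cells/well, forskolin 10 μM final; CHO/hFPR2 2,000 cells/well, forskolin 5 μM final. IBMX 200 μM, DMSO 1%, DPBS + Ca/Mg + 0.1% BSA, 30 min rt. HTRF cAMP; 4-PL fit.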

human FPR1 = molecular target: T2, human FPR1 (Homo sapiens, UniProt P21462); test: FPR1 cyclic adenosine monophosphate (cAMP) assay; format: cell-based; details: CHO cells overexpressing human FPR1; forskolin 10 μM; inhibition of cAMP production; HTRF; read-out: hFPR1 cAMP2 EC50
T2 sequence (P21462 1-350): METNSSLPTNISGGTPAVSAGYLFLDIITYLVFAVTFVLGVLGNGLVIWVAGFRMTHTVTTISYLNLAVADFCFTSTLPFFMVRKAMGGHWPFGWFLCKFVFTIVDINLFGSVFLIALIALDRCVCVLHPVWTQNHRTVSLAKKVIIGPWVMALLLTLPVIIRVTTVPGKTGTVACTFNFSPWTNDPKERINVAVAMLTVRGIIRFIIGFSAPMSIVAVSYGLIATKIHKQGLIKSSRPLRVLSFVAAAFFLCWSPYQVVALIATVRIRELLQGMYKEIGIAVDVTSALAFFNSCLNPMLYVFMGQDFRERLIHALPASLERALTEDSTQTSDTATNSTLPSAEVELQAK
Summary of the method: as §1

Structure (SMILES) | EC50 (human FPR2) | EC50 (human FPR1)
COc1cc(F)c(-c2c(NC(=O)c3ccc(OC(F)F)cc3)c(=O)n(-c3nc(OC)ccc3Cl)n2C)c(F)c1 [Example 182, N-[2-(3-chloro-6-methoxypyridin-2-yl)-5-(2,6-difluoro-4-methoxyphenyl)-1-methyl-3-oxo-2,3-dihydro-1H-pyrazol-4-yl]-4-(difluoromethoxy)benzamide] | 12 nM | > 10000 nM
COc1cc(N2CC[C@H](O)C2)nc(-n2c(=O)c(NC(=O)c3ccc(OC(F)F)cc3)c(-c3c(F)cc(OC)cc3F)n2C)c1 [Example 97, N-[5-(2,6-difluoro-4-methoxyphenyl)-2-{6-[(3S)-3-hydroxypyrrolidin-1-yl]-4-methoxypyridin-2-yl}-1-methyl-3-oxo-2,3-dihydro-1H-pyrazol-4-yl]-4-(difluoromethoxy)benzamide] | 3 nM | 3400 nM
COc1cc(F)c(-c2c(NC(=O)c3ccc(OC(F)F)cc3)c(=O)n(-c3nccc(C4CCCCC4)c3C#N)n2C)c(F)c1 [Example 199, N-[2-(3-cyano-4-cyclohexylpyridin-2-yl)-5-(2,6-difluoro-4-methoxyphenyl)-1methyl-3-oxo-2,3-dihydro-1H-pyrazol-4-yl]-4-(difluoromethoxy)benzamide] | 5 nM | 900 nM
COc1cc(F)c(-c2c(NC(=O)c3ccc(OC(F)F)cc3)c(=O)n(-c3nc(Cl)ccc3Cl)n2C)c(F)c1 [Example 242, N-[2-(3,6-dichloropyridin-2-yl)-5-(2,6-difluoro-4-methoxyphenyl)-1-methyl-3-oxo-2,3-dihydro-1H-pyrazol-4-yl]-4-(difluoromethoxy)benzamide] | 20 nM | > 10000 nM
COc1cc(F)c(-c2c(NC(=O)c3ccc(OC(F)F)cc3)c(=O)n(-c3nc(Nc4cn(C)nc4C)ccc3C(F)(F)F)n2C)c(F)c1 [Example 228, N-[5-(2,6-difluoro-4-methoxyphenyl)-2-{6-[(1,3-dimethyl-1H-pyrazol-4-yl)amino]-3-(trifluoromethyl)pyridin-2-yl}-1-methyl-3-oxo-2,3-dihydro-1H-pyrazol-4-yl]-4-(difluoromethoxy)benzamide] | 1 nM | > 5000 nM
COc1cc(F)c(-c2c(NC(=O)c3ccc(OC(F)F)cc3)c(=O)n(-c3nc(C(C)(C)C)ccc3C#N)n2C)c(F)c1 [Example 190, N-[2-(6-tert-butyl-3-cyanopyridin-2-yl)-5-(2,6-difluoro-4-methoxyphenyl)-1-methyl-3-oxo-2,3-dihydro-1H-pyrazol-4-yl]-4-(difluoromethoxy)benzamide] | 3 nM | > 10000 nM
COc1cc(F)c(-c2c(NC(=O)c3ccc(OC(F)F)cc3)c(=O)n(-c3nc(C(F)(F)F)ccc3OC[C@H](C)O)n2C)c(F)c1 [Example 373, (S)-N-(5-(2,6-Difluoro-4-methoxyphenyl)-2-(3-(2-hydroxypropoxy)-6-(trifluoromethyl)pyridin-2-yl)-1-methyl-3-oxo-2,3-dihydro-1H-pyrazol-4-yl)-4-(difluoromethoxy)benzamide] | 16 nM | > 10000 nM
COc1cc(F)c(-c2c(NC(=O)c3ccc(OC(F)F)cc3)c(=O)n(-c3nc(N4CCC(C)(O)C4)ccc3C(F)(F)F)n2C)c(F)c1 (stereo not shown) [Example 284, N-[5-(2,6-difluoro-4-methoxyphenyl)-2-[6-(3-hydroxy-3-methylpyrrolidin-1-yl)-3-(trifluoromethyl)pyridin-2-yl]-1-methyl-3-oxo-2,3-dihydro-1H-pyrazol-4-yl]-4-(difluoromethoxy)benzamide] | 2 nM | 1800 nM
COc1cc(F)c(-c2c(NC(=O)c3ccc(OC(F)(F)F)cc3)c(=O)n(-c3cccc(OC)n3)n2C)c(F)c1 [Example 74, N-[5-(2,6-difluoro-4-methoxyphenyl)-2-(6-methoxypyridin-2-yl)-1-methyl-3-oxo-2,3-dihydro-1H-pyrazol-4-yl]-4-(trifluoromethoxy)benzamide] | 6 nM | 820 nM
COc1cc(F)c(-c2c(NC(=O)c3ccc(C(F)(F)F)cc3)c(=O)n(-c3ccc(F)cc3)n2C)c(F)c1 [Example 17, N-[5-(2,6-difluoro-4-methoxyphenyl)-2-(4-fluorophenyl)-1-methyl-3-oxo-2,3-dihydro-1H-pyrazol-4-yl]-4-(trifluoromethyl)benzamide] | 51 nM | 1700 nM
CC(C)Oc1cc(OCCO)nc(-n2c(=O)c(NC(=O)c3ccc(OC(F)F)cc3)c(-c3c(F)cc(Cl)cc3F)n2C)c1 [Example 399, N-(5-(4-chloro-2,6-difluorophenyl)-2-(6-(2-hydroxyethoxy)-4-isopropoxypyridin-2-yl)-1-methyl-3-oxo-2,3-dihydro-1H-pyrazol-4-yl)-4-(difluoromethoxy)benzamide] | 11 nM | 550 nM
COc1cc(F)c(-c2c(NC(=O)c3ccc(OC(F)(F)F)cc3)c(=O)n(-c3cccc(C(F)(F)F)n3)n2C)c(F)c1 [Example 155, N-[5-(2,6-difluoro-4-methoxyphenyl)-1-methyl-3-oxo-2-[6-(trifluoromethyl)pyridin-2-yl]-2,3-dihydro-1H-pyrazol-4-yl]-4-(trifluoromethoxy)benzamide] | 9 nM | 2200 nM
COCC(CO)Oc1cc(OC)cc(-n2c(=O)c(NC(=O)c3ccc(OC(F)F)cc3)c(-c3c(F)cc(OC)cc3F)n2C)n1 (stereo not shown) [Example 382, N-(5-(2,6-Difluoro-4-methoxyphenyl)-2-(6-((1-hydroxy-3-methoxypropan-2-yl)oxy)-4-methoxypyridin-2-yl)-1-methyl-3-oxo-2,3-dihydro-1H-pyrazol-4-yl)-4-(difluoromethoxy)benzamide] | 8 nM | > 10000 nM
COc1cc(F)c(-c2c(NC(=O)c3ccc(OC(F)F)cc3)c(=O)n(-c3cccc(OC)c3Cl)n2C)c(F)c1 [Example 181, N-[2-(2-chloro-3-methoxyphenyl)-5-(2,6-difluoro-4-methoxyphenyl)-1-methyl-3-oxo-2,3-dihydro-1H-pyrazol-4-yl]-4-(difluoromethoxy)benzamide] | 6 nM | 140 nM
COc1cc(F)c(-c2c(NC(=O)c3ccc(OC(F)(F)F)cc3)c(=O)n(-c3ccccc3F)n2C)c(F)c1 [Example 28, N-[5-(2,6-difluoro-4-methoxyphenyl)-2-(2-fluorophenyl)-1-methyl-3-oxo-2,3-dihydro-1H-pyrazol-4-yl]-4-(trifluoromethoxy)benzamide] | 10 nM | 2500 nM
COc1cc(F)c(-c2c(NC(=O)c3ccc(OC(F)F)cc3)c(=O)n(-c3nc(NC4COC4)ccc3C(F)(F)F)n2C)c(F)c1 [Example 253, N-[5-(2,6-difluoro-4-methoxyphenyl)-1-methyl-2-{6-[(oxetan-3-yl)amino]-3-(trifluoromethyl)pyridin-2-yl}-3-oxo-2,3-dihydro-1H-pyrazol-4-yl]-4-(difluoromethoxy)benzamide] | 5 nM | > 10000 nM
COc1cc(F)c(-c2c(NC(=O)c3ccc(OC(F)F)cc3)c(=O)n(-c3nc(NCC(=O)NC4CC4)ccc3C(F)(F)F)n2C)c(F)c1 [Example 229, N-[2-(6-{[(cyclopropylcarbamoyl)methy]amino}-3-(trifluoromethyl)pyridin-2-yl)-5-(2,6-difluoro-4-methoxyphenyl)-1-methyl-3-oxo-2,3-dihydro-1H-pyrazol-4-yl]-4-(difluoromethoxy)benzamide] | 3 nM | > 10000 nM
COc1cc(F)c(-c2c(NC(=O)c3ccc(OC(F)F)cc3)c(=O)n(-c3cc(Cl)cc(OC(F)(F)F)c3)n2C)c(F)c1 [Example 123, N-{2-[3-chloro-5-(trifluoromethoxy)phenyl]-5-(2,6-difluoro-4-methoxyphenyl)-1-methyl-3-oxo-2,3-dihydro-1H-pyrazol-4-yl}-4-(difluoromethoxy)benzamide] | 19 nM | > 10000 nM
Cn1c(-c2ccc(OC(F)F)cc2)c(NC(=O)c2ccc(OC(F)F)cc2)c(=O)n1-c1nc(Cl)ccc1C(F)(F)F [Example 317, N-{2-[6-chloro-3-(trifluoromethyl)pyridin-2-yl]-5-[4-(difluoromethoxy)phenyl]-1-methyl-3-oxo-2,3-dihydro-1H-pyrazol-4-yl}-4-(difluoromethoxy)benzamide] | 14 nM | 1800 nM
COc1cc(F)c(-c2c(NC(=O)c3ccc(OC(F)(F)F)cc3)c(=O)n(-c3cc(C)cc(C)n3)n2C)c(F)c1 [Example 66, N-[5-(2,6-difluoro-4-methoxyphenyl)-2-(4,6-dimethylpyridin-2-yl)-1-methyl-3-oxo-2,3-dihydro-1H-pyrazol-4-yl]-4-(trifluoromethoxy)benzamide] | 8 nM | 2500 nM
